# From patent US6432403B1, “Antibodies to polypeptides having prenylcysteine carboxyl methlytransferase activity or inhibiting activity” (New York University, priority 1997, dated 2002)
# Tests used:
# human pcCMT [1] = molecular target: T1, human pcCMT (Homo sapiens, UniProt O60725); assay: Carboxyl methylation of prenylcysteine analogs (AFC, AGGC) as defined substrates by the recombinant enzyme in COS-1 membranes; assay type: biochemical
# T1 construct: The 3.6-kb full-length HL60 pcCMT cDNA and an 852-bp cDNA fragment comprising the ORF were subcloned into the eukaryotic expression vectors; expressed in transfected cells; host or cells: COS-1 cells (pCDM8 vector, DEAE-dextran transfection); light membranes after nitrogen cavitation
# T1 sequence (O60725 whole entry, the tested form may be a part): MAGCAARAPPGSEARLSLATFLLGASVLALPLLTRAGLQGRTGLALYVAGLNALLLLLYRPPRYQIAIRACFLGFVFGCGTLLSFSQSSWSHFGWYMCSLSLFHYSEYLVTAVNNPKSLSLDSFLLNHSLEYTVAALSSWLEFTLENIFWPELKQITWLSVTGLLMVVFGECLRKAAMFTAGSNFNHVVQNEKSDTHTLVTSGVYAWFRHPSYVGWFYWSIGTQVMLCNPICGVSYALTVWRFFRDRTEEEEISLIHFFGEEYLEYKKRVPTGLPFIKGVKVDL
# Description: (§1) Prenylcysteine Carboxyl Methyltransferase Assays: COS-1 cells transfected with HL60 pcCMT or vector alone were harvested at 48 hours with 5 mM EDTA and subjected, in parallel with human neutrophils, to nitrogen cavitation and discontinuous sucrose density centrifugation as described (Philips et al, 1991). Light membranes were assayed for pcCMT activity qualitatively by S-adenosyl-L- [methyl-^3H]methionine labeling (SDS-polyacrylamide gel electrophoresis and flurography) of Rho GTPases partially purified from neutrophil cytosol and quantitatively by carboxyl methylation of N-acetyl-S-trans,trans-farnesyl-L-cysteine (AFC) (heptane partition, alkaline hydrolysis, and measurement of vapor phase [^3H]methanol) as described (Philips et al, 1995)
# (§2) To determine whether the HL60 STE14 protein homolog has prenylcysteine carboxyl methyltransferase activity, the cDNA was subcloned into a mammalian expression vector PCDM8 (Invitrogen, San Diego, Calif.) and transiently overexpressed ectopically in COS-1 cells. Membranes prepared from these cells were used as a source of recombinant enzyme. Farnesylated Ras GTPases require detergent for extraction from membranes. Therefore, geranylgeranylated neutrophil cytosolic Rho accessory protein, guanine nucleotide dissociation inhibitor (GDI), were utilized as endogenous substrates in an in vitro assay (FIGS. 5A and 5B). Untransfected COS-1 cell membranes had little pcCMT activity toward Rho proteins compared with that of membranes derived from human neutrophils (FIG. 5A). Transfection with the HL60 cDNA conferred pcCMT activity toward Rho GTPases on COS-1 membranes, and this activity was blocked by the competitive pcCMT inhibitor, AFC, with an ED50 (10 μM) identical to that for endogenous neutrophil pcCMT. Carboxyl methylation of Rac2 and RhoA by HL60 pcCMT-transfected COS-1 cell membranes was enhanced by guanosine 5′-3-O-(thio)triphosphate (GTPγS) (FIG. 5B), similar to the activity observed in neutrophil membranes (Philips et al, 1993). Carboxyl methyltransferase activity was quantitated in membranes of COS-1 cells transfected with HL60 pcCMT using prenylcysteine analogs as defined substrates (Philips et al, 1995). Untransfected COS-1 cell membranes had […] (n=5) of the pcCMT specific activity of neutrophil membranes toward AFC.
# The Michaelis constants of the recombinant enzyme, Km=7 μM for AFC and 0.6 μM for AGGC, were similar to those for the endogenous neutrophil enzyme (Pillinger et al, 1994). Thus, the cDNA described above encodes authentic human myeloid pcCMT.
# human pcCMT [2] = molecular target: T1, human pcCMT; assay: Carboxyl methylation of Rho GTPases by COS-1 cell membranes expressing human pcCMT (S-adenosyl-L-[methyl-3H]methionine labeling, SDS-PAGE, fluorography); assay type: biochemical; conditions: HL60 pcCMT-transfected COS-1 cell membranes; 10 μM
# Description: FIGS. 5A and 5B show the carboxyl methylation of ras-related GTPases by COS-1 cell membranes expressing ectopic human pcCMT. In FIG. 5A, neutrophil cytosol (CS) containing a mixture of Rho family proteins complexed with Rho-GDI (lanes 2, 3, 6, 7, 10, 11) or RhoA-GDI complexes partially purified from CS (lanes 4, 8, 12) were incubated with the methyl donor S-adenosyl-L-[methyl-^3H]methionine and light membranes derived from nitrogen cavitation of human neutrophils (lanes 1-4) or COS-1 cells transiently transfected with either human pcCMT (lanes 5-8) or vector alone (lanes 9-12). In some reactions (lanes 3, 7, 11) a competitive pcCMT inhibitor, AFC, was included. Reaction products were analyzed by SDS-PAGE and fluorography. The position of carboxyl methylated […] is indicated as is the position of protein phosphatase 2a (PP2a) that is methylated on a C-terminal leucine by an enzyme unrelated to pcCMT (Lee et al, 1993). […] Carboxyl methyltransferase activity was quantitated in membranes of COS-1 cells transfected with HL60 pcCMT using prenylcysteine analogs as defined substrates (Philips et al, 1995). […]
# [3] = Prenylcysteine carboxyl methyltransferase activity of membranes, AFC as substrate; assay type: biochemical, human; conditions: for Increase: relative to COS + Vector; for Relative enzymatic activity: COS cell membranes, Vector Alone = 1
# Source text: Expression of Recombinant pcCMT: The 3.6-kb full-length HL60 pcCMT cDNA and an 852-bp cDNA fragment comprising the ORF were subcloned into the eukaryotic expression vectors pCDM8 and pcDNA3.1 (Invitrogen, Carlsbad, Calif.). Myc-tagged pcCMT was made by adding a sequence encoding the 10-amino acid epitope of c-Myc recognized by monoclonal antibody 9E10 to the C terminus of pcCMT using patch PCR and subcloning into pcDNA3.1. pcCMT tagged at the C terminus with GFP was generated by subcloning the pcCMT ORF into the expression vector pGFP-N3 (Clontech). For pcCMT enzymatic assays, COS-1 cells were grown in 10-cm dishes and transfected with pcCMT with DEAE-dextran as described (Aruffo et al, 1987). For fluorescence microscopy, exponentially growing COS-1, CHO, and NIH3T3 cells were plated the day prior to transfection at 50-60% confluence and transfected with 2 μg of DNA using LipofectAMINE (Life Technologies, Inc.), Gaithersburg, Md.) according to the manufacturer's instructions.
# as §1, §2
# Δste14 yeast strain = assay: ste14 complementation, patch mating test; assay type: cell-based, S. cerevisiae; conditions: cDNA expressed from a plasmid
# Description: S. cerevisiae Strains, Growth, and ste14 Complementation: Complete (YEPD), synthetic (SD), and synthetic dropout media were prepared as described previously (Michaelis et al, 1988), except that dropout medium lacked cysteine. All experiments were performed at 30° C. Yeast transformations were carried out by either the lithium acetate method (Ito et al, 1983) or the Elble method (Elble, 1992). The ste14 deletion strains used are SM1188 (MATαΔste14-3:: TRP1 trp1 leu2 ura3 his4 can1) and SM1639 (MATαΔste14-4:: URA3 trp1 leu2 his4 can1) (Sapperstein et al, 1994). Plasmid expression of STE14 protein was accomplished by pSM1237 (CEN URA3 STE14). Human pcCMT was expressed in yeast by subcloning the HL60 pcCMT ORF into the BamHI SalI sites of the yeast expression plasmid pG1 (2μ TRP1) that utilizes a GPD promoter and a PGK transcription terminator and polyadenylation signal (Schena et al, 1991). The resulting construct was designated pG1-hCMT (2μ TRP1 hCMT). Patch mating tests were carried out essentially as described previously (Michaelis et al, 1988). briefly, patches of MATα cells grown on selective media were replica plated onto a lawn of the […], SM1068 (lys1), that had been spread on an SD plate. […]
# To determine whether human pcCMT could substitute in vivo for the S. cerevisiae pcCMT, STE14 protein, a complementation analysis was done using mating as a biological readout. […]
compound,measurement,setting,value
"CC(=O)N[C@@H](CSC/C=C(\C)CC/C=C(\C)CC/C=C(\C)CCC=C(C)C)C(=O)O (stereo in doubt) [AGGC, N-acetyl-S-all-trans-geranylgeranyl-L-cysteine]",Increase in carboxyl methylation of the substrate on pcCMT transfection,human pcCMT [1]; n=2,18 fold
same,Km,"human pcCMT [1]; recombinant enzyme, read-out: Michaelis constant Km",0.6 µM
"Nc1nc2c(ncn2[C@@H]2O[C@H](COP(=O)(O)OP(=O)(O)OP(O)(O)=S)[C@@H](O)[C@H]2O)c(=O)[nH]1 [GTPγS, guanosine 5′-3-O-(thio)triphosphate]",Effect on carboxyl methylation of Rac2 and RhoA,human pcCMT [2],enhanced
COS + pcCMT ORF: membranes of COS cells transfected with pCDM8 + pcCMT ORF only,Activity,[3]; Experiment 2,84.6 pmol/mg/min
same,Increase,[3]; Experiment 2,45 fold
same,Activity,[3]; Experiment 3,90.7 pmol/mg/min
same,Increase,[3]; Experiment 3,53 fold
COS + pcCMT cDNA: membranes of COS cells transfected with pCDM8 + pcCMT full-length cDNA,Activity,[3]; Experiment 1,62.7 pmol/mg/min
same,Increase,[3]; Experiment 1,12 fold
same,Activity,[3]; Experiment 2,17.7 pmol/mg/min
same,Increase,[3]; Experiment 2,9 fold
same,Activity,[3]; Experiment 3,35.3 pmol/mg/min
same,Increase,[3]; Experiment 3,21 fold
"HL60 pcCMT: human prenylcysteine carboxyl methyltransferase, 284 amino acid protein of SEQ ID NO:5, ectopically expressed in COS-1 cell membranes",Relative enzymatic activity,[3]; Experiment #1,14.1
same,Relative enzymatic activity,[3]; Experiment #2,5.4
same,Relative enzymatic activity,[3]; Experiment #3,19.6
same,Specific AFC carboxyl methyltransferase activity,"[3]; transfected COS-1 membranes, n=5, p<0.0005",74.5 ± 6.8 pmol/mg/min
same,Increase in specific AFC carboxyl methyltransferase activity,[3]; transfection of COS-1 cells,18-53 fold
same,Restoration of mating phenotype,Δste14 yeast strain,partially restored the mating phenotype
PcCMT-Myc: pcCMT with the 10-amino acid c-Myc epitope added at the C terminus,Relative enzymatic activity,[3]; Experiment #1,11.1
pcCMT-FLAG: pcCMT with the 8-amino acid FLAG epitope as C-terminal extension,Relative enzymatic activity,[3]; Experiment #2,5.45
same,Relative enzymatic activity,[3]; Experiment #3,18.5
